Test results published in patent publication US11053204B2, “Pyrimidinyloxy benzene derivatives as herbicides” (FMC Corporation, priority 2015, dated 2021).

Experiments:
Assay type in all cases: in vivo
[1] = test system: barnyardgrass (Echinochloa crus-galli); assay: Test B flooded paddy test, plant response rating; settings: 250 g ai/ha; Flood; scale of 0 to 100 where 0 is no effect and 100 is complete control; 13 to 15 days
Summary of the method: (§1)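 Ratings were visual and made relative to untreated controls after 13 to 15 greenhouse days.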

rice (Oryza sativa) = assay: Test B flooded paddy test, plant response rating; settings: 250 g ai/ha; Flood; scale of 0 to 100 where 0 is no effect and 100 is complete control; 13 to 15 days
Summary of the method: as §1

[2] = test system: ducksalad (Heteranthera limosa); assay: Test B flooded paddy test, plant response rating; settings: 250 g ai/ha; Flood; scale of 0 to 100 where 0 is no effect and 100 is complete control; 13 to 15 days
Summary of the method: as §1

[3] = test system: sedge, umbrella (small-flower umbrella sedge, Cyperus difformis); assay: Test B flooded paddy test, plant response rating; settings: 250 g ai/ha; Flood; scale of 0 to 100 where 0 is no effect and 100 is complete control; 13 to 15 days
Summary of the method: as §1

[4] = test system: Italian ryegrass (Lolium multiflorum); assay: Test A postemergence, visual injury rating; settings: 0 is no effect, 100 is complete control; for Ryegrass, Italian plant response rating: 0 to 100 scale, approximately 10 days
Summary of the method: (§2)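 Pre- and postemergence greenhouse screen. Soil: loam + sand. Spray carrier: solvent mixture, non-phytotoxic, with surfactant. Post timing at 1–2 leaves, height 2–10 cm. Readout: visual injury on a 0–100 scale roughly 10 days after application, untreated plants as reference.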

kochia (Kochia scoparia) [5] = assay: Test A postemergence, visual injury rating; settings: 0 is no effect, 100 is complete control; for Kochia plant response rating: 0 to 100 scale, approximately 10 days
Summary of the method: as §2

[6] = test system: barnyardgrass (Echinochloa crus-galli); assay: Test A postemergence, visual injury rating; settings: 0 is no effect, 100 is complete control; for Barnyardgrass plant response rating: 0 to 100 scale, approximately 10 days
Summary of the method: as §2

[7] = test system: wheat (Triticum aestivum); assay: Test A postemergence, visual injury rating; settings: 0 is no effect, 100 is complete control; for Wheat plant response rating: 0 to 100 scale, approximately 10 days
Summary of the method: as §2

[8] = test system: ragweed (common ragweed, Ambrosia elatior); assay: Test A postemergence, visual injury rating; settings: 0 is no effect, 100 is complete control; for Ragweed plant response rating: 0 to 100 scale, approximately 10 days
Summary of the method: as §2

[9] = test system: pigweed (Amaranthus retroflexus); assay: Test A postemergence, visual injury rating; settings: 0 is no effect, 100 is complete control; for Pigweed plant response rating: 0 to 100 scale, approximately 10 days
Summary of the method: as §2

[10] = test system: giant foxtail (Setaria faberii); assay: Test A postemergence, visual injury rating; settings: 0 is no effect, 100 is complete control; for Foxtail, Giant plant response rating: 0 to 100 scale, approximately 10 days
Summary of the method: as §2

[11] = test system: galium (catchweed bedstraw, Galium aparine); assay: Test A postemergence, visual injury rating; settings: 0 is no effect, 100 is complete control; for Galium plant response rating: 0 to 100 scale, approximately 10 days
Summary of the method: as §2

corn (Zea mays) = assay: Test A postemergence, visual injury rating; settings: 0 is no effect, 100 is complete control; for Corn plant response rating: 0 to 100 scale, approximately 10 days
Summary of the method: as §2

[12] = test system: blackgrass (Alopecurus myosuroides); assay: Test A postemergence, visual injury rating; settings: 0 is no effect, 100 is complete control; for Blackgrass plant response rating: 0 to 100 scale, approximately 10 days
Summary of the method: as §2

[13] = test system: Italian ryegrass (Lolium multiflorum); assay: Test A preemergence, visual injury rating; settings: for Plant response rating, Ryegrass, Italian: 31 g ai/ha, 0 to 100 scale, 0 no effect, 100 complete control; for Ryegrass, Italian plant response rating: 0 to 100 scale (0 no effect, 100 complete control)
Summary of the method: as §2

kochia (Kochia scoparia) [14] = assay: Test A preemergence, visual injury rating; settings: for Plant response rating, Kochia: 31 g ai/ha, 0 to 100 scale, 0 no effect, 100 complete control; for Kochia plant response rating: 0 to 100 scale (0 no effect, 100 complete control)
Summary of the method: as §2

[15] = test system: barnyardgrass (Echinochloa crus-galli); assay: Test A preemergence, visual injury rating; settings: for Plant response rating, Barnyardgrass: 31 g ai/ha, 0 to 100 scale, 0 no effect, 100 complete control; for Barnyardgrass plant response rating: 0 to 100 scale (0 no effect, 100 complete control)
Summary of the method: as §2

[16] = test system: ragweed (common ragweed, Ambrosia elatior); assay: Test A preemergence, visual injury rating; settings: for Plant response rating, Ragweed: 31 g ai/ha, 0 to 100 scale, 0 no effect, 100 complete control; for Ragweed plant response rating: 0 to 100 scale (0 no effect, 100 complete control)
Summary of the method: as §2

[17] = test system: pigweed (Amaranthus retroflexus); assay: Test A preemergence, visual injury rating; settings: for Plant response rating, Pigweed: 31 g ai/ha, 0 to 100 scale, 0 no effect, 100 complete control; for Pigweed plant response rating: 0 to 100 scale (0 no effect, 100 complete control)
Summary of the method: as §2

[18] = test system: giant foxtail (Setaria faberii); assay: Test A preemergence, visual injury rating; settings: for Plant response rating, Foxtail, Giant: 31 g ai/ha, 0 to 100 scale, 0 no effect, 100 complete control; for Foxtail, Giant plant response rating: 0 to 100 scale (0 no effect, 100 complete control)
Summary of the method: as §2

SMILES | Plant response rating, Barnyardgrass [1] | Plant response rating, Rice (rice (Oryza sativa)) | Plant response rating, Ducksalad [2] | Plant response rating, Sedge, Umbrella [3] | Ryegrass, Italian plant response rating ([4]; 125 g ai/ha) | Kochia plant response rating (kochia (Kochia scoparia) [5]; 125 g ai/ha) | Barnyardgrass plant response rating ([6]; 125 g ai/ha) | Wheat plant response rating ([7]; 125 g ai/ha) | Ragweed plant response rating ([8]; 125 g ai/ha) | Pigweed plant response rating ([9]; 125 g ai/ha) | Foxtail, Giant plant response rating ([10]; 125 g ai/ha) | Galium plant response rating ([11]; 125 g ai/ha) | Corn plant response rating (corn (Zea mays); 125 g ai/ha) | Blackgrass plant response rating ([12]; 125 g ai/ha) | Ryegrass, Italian plant response rating ([13]; 125 g ai/ha) | Kochia plant response rating (kochia (Kochia scoparia) [14]; 125 g ai/ha) | Barnyardgrass plant response rating ([15]; 125 g ai/ha) | Ragweed plant response rating ([16]; 125 g ai/ha) | Pigweed plant response rating ([17]; 125 g ai/ha) | Foxtail, Giant plant response rating ([18]; 125 g ai/ha) | also measured
O=C(OCCC(F)(F)F)c1cc(Cl)ccc1Oc1ncc(Cl)cn1 [Compound 88] | 0 | 20 | 0 | 0 | 0 | 0 | 0 | 0 | 0 | 0 | 0 | 0 | 0 | 0 | 0 | 0 | 0 | 0 | 0 | 0 | Ryegrass, Italian plant response rating ([4]; 31 g ai/ha): 0; Kochia plant response rating (kochia (Kochia scoparia) [5]; 31 g ai/ha): 0; Barnyardgrass plant response rating ([6]; 31 g ai/ha): 0; Wheat plant response rating ([7]; 31 g ai/ha): 0; Ragweed plant response rating ([8]; 31 g ai/ha): 0; Pigweed plant response rating ([9]; 31 g ai/ha): 0; Foxtail, Giant plant response rating ([10]; 31 g ai/ha): 0; Galium plant response rating ([11]; 31 g ai/ha): 0; Corn plant response rating (corn (Zea mays); 31 g ai/ha): 0; Blackgrass plant response rating ([12]; 31 g ai/ha): 0; Plant response rating, Ryegrass, Italian [13]: 0; Plant response rating, Kochia (kochia (Kochia scoparia) [14]): 0; Plant response rating, Barnyardgrass [15]: 0; Plant response rating, Ragweed [16]: 0; Plant response rating, Pigweed [17]: 0; Plant response rating, Foxtail, Giant [18]: 0
C=C(C)CCOC(=O)c1c(Br)cccc1Oc1ncc(Cl)cn1 [Compound 90] | 0 | 0 | 30 | 60 | 0 | 50 | 30 | 0 | 0 | 50 | 60 | 20 | 10 | 0 | 0 | 0 | 40 | 0 | 0 | 70 | Ryegrass, Italian plant response rating ([4]; 31 g ai/ha): 0; Kochia plant response rating (kochia (Kochia scoparia) [5]; 31 g ai/ha): 30; Barnyardgrass plant response rating ([6]; 31 g ai/ha): 0; Wheat plant response rating ([7]; 31 g ai/ha): 0; Ragweed plant response rating ([8]; 31 g ai/ha): 0; Pigweed plant response rating ([9]; 31 g ai/ha): 10; Foxtail, Giant plant response rating ([10]; 31 g ai/ha): 10; Galium plant response rating ([11]; 31 g ai/ha): 0; Corn plant response rating (corn (Zea mays); 31 g ai/ha): 0; Blackgrass plant response rating ([12]; 31 g ai/ha): 0; Plant response rating, Ryegrass, Italian [13]: 0; Plant response rating, Kochia (kochia (Kochia scoparia) [14]): 0; Plant response rating, Barnyardgrass [15]: 0; Plant response rating, Ragweed [16]: 0; Plant response rating, Pigweed [17]: 0; Plant response rating, Foxtail, Giant [18]: 10
C=CCSC(=O)c1c(Br)cccc1Oc1ncc(Cl)cn1 [Compound 91] | 0 | 20 | 100 | 95 | 0 | 60 | 30 | 20 | 0 | 100 | 30 | 70 | 20 | 20 | 0 | 20 | 90 | 0 | 40 | 70 | Ryegrass, Italian plant response rating (0 to 100 scale) ([4]; 500 g ai/ha): 30; Kochia plant response rating (0 to 100 scale) (kochia (Kochia scoparia) [5]; 500 g ai/ha): 100; Barnyardgrass plant response rating (0 to 100 scale) ([6]; 500 g ai/ha): 100; Wheat plant response rating (0 to 100 scale) ([7]; 500 g ai/ha): 30; Ragweed plant response rating (0 to 100 scale) ([8]; 500 g ai/ha): 20; Pigweed plant response rating (0 to 100 scale) ([9]; 500 g ai/ha): 100; Foxtail, Giant plant response rating (0 to 100 scale) ([10]; 500 g ai/ha): 100; Galium plant response rating (0 to 100 scale) ([11]; 500 g ai/ha): 90; Corn plant response rating (0 to 100 scale) (corn (Zea mays); 500 g ai/ha): 50; Blackgrass plant response rating (0 to 100 scale) ([12]; 500 g ai/ha): 30; Ryegrass, Italian plant response rating ([13]; 500 g ai/ha): 80; Kochia plant response rating (kochia (Kochia scoparia) [14]; 500 g ai/ha): 100; Barnyardgrass plant response rating ([15]; 500 g ai/ha): 100; Ragweed plant response rating ([16]; 500 g ai/ha): 0; Pigweed plant response rating ([17]; 500 g ai/ha): 100; Foxtail, Giant plant response rating ([18]; 500 g ai/ha): 100
O=C(NCCC(F)(F)F)c1c(Br)cccc1Oc1ncc(Cl)cn1 [Compound 93] | 0 | 0 | 0 | 0 | 0 | 0 | 0 | 0 | 0 | 0 | 0 | 0 | 0 | 0 | 0 | 0 | 0 | 0 | 0 | 0 | Ryegrass, Italian plant response rating ([4]; 31 g ai/ha): 0; Kochia plant response rating (kochia (Kochia scoparia) [5]; 31 g ai/ha): 0; Barnyardgrass plant response rating ([6]; 31 g ai/ha): 0; Wheat plant response rating ([7]; 31 g ai/ha): 0; Ragweed plant response rating ([8]; 31 g ai/ha): 0; Pigweed plant response rating ([9]; 31 g ai/ha): 0; Foxtail, Giant plant response rating ([10]; 31 g ai/ha): 0; Galium plant response rating ([11]; 31 g ai/ha): 0; Corn plant response rating (corn (Zea mays); 31 g ai/ha): 0; Blackgrass plant response rating ([12]; 31 g ai/ha): 0; Plant response rating, Ryegrass, Italian [13]: 0; Plant response rating, Kochia (kochia (Kochia scoparia) [14]): 0; Plant response rating, Barnyardgrass [15]: 0; Plant response rating, Ragweed [16]: 0; Plant response rating, Pigweed [17]: 0; Plant response rating, Foxtail, Giant [18]: 0
O=C(OCCC(F)(F)F)c1cc(Br)ccc1Oc1ncc(Cl)cn1 [Compound 94] | 0 | 0 | 0 | 0 | 0 | 0 | 0 | 0 | 0 | 0 | 0 | 0 | 0 | 0 | 0 | 0 | 0 | 0 | 0 | 0 | Ryegrass, Italian plant response rating ([4]; 31 g ai/ha): 0; Kochia plant response rating (kochia (Kochia scoparia) [5]; 31 g ai/ha): 0; Barnyardgrass plant response rating ([6]; 31 g ai/ha): 0; Wheat plant response rating ([7]; 31 g ai/ha): 0; Ragweed plant response rating ([8]; 31 g ai/ha): 0; Pigweed plant response rating ([9]; 31 g ai/ha): 0; Foxtail, Giant plant response rating ([10]; 31 g ai/ha): 0; Galium plant response rating ([11]; 31 g ai/ha): 0; Corn plant response rating (corn (Zea mays); 31 g ai/ha): 0; Blackgrass plant response rating ([12]; 31 g ai/ha): 0; Plant response rating, Ryegrass, Italian [13]: 0; Plant response rating, Kochia (kochia (Kochia scoparia) [14]): 0; Plant response rating, Barnyardgrass [15]: 0; Plant response rating, Ragweed [16]: 0; Plant response rating, Pigweed [17]: 0; Plant response rating, Foxtail, Giant [18]: 0
